According to US12686690B2, “Macrocyclic urea orexin receptor agonists” (Merck Sharp & Dohme LLC, priority 2020, dated 2026):

Biological target: T1, hOX2R (Homo sapiens, UniProt O43614)
T1 construct: expressed in transfected cells; host or cells: CHO cells (G418 selection)
T1 sequence (O43614 1-444): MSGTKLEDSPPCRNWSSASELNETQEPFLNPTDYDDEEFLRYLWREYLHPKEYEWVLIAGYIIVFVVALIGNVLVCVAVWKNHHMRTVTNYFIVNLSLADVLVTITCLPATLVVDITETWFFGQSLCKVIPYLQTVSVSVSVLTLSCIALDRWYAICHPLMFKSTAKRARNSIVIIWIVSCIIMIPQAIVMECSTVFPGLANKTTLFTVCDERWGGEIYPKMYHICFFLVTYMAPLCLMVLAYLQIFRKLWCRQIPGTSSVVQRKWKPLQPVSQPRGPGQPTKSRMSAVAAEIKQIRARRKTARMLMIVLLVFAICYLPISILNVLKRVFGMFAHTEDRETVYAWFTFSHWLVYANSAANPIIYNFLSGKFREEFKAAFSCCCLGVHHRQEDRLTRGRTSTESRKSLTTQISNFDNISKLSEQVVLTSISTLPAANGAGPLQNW
Assay: hOX2R IPone assay (orexin receptor agonism)
Type: cell-based
Conditions: IPone readout; for hOX2R_Ipone max %act: maximal activation; for EC50: orexin receptor agonist, read-out: hOX2R_IPone EC50

hOX2R_Ipone max %act | EC50 | Structure (SMILES)
92.5% | 1050 nM | CCN1C(=O)NCCC2CCC(C2)Oc2nc(cn3ccnc23)-c2cccc(c2)[C@H]1C (single isomer, unassigned) [Example 1A]
100.3% | 0.5 nM | CCN1C(=O)NC(CCC(F)(F)F)COCCCOc2nc(cn3ccnc23)-c2cc(ncc2OC)[C@H]1C (single isomer, unassigned) [Example 21B]
99.2% | 78.9 nM | CCN1C(=O)NC(CC2CC2)CCCCCOc2nc(cn3ccnc23)-c2cc(ncc2OC)[C@H]1C (single isomer, unassigned) [Example 55A]
98.43% | 315 nM | CCN1C(=O)NC(C(C)(C)C)CCCCCOc2nc(cn3ccnc23)-c2cc(ncc2OC)[C@H]1C (single isomer, unassigned) [Example 63A]
98.9% | 204 nM | CCN1C(=O)N[C@@H](CCC(F)(F)F)CCCCCOc2nc(cn3c(C)cnc23)-c2cc(nc3ccoc23)C1C (single isomer, unassigned) [Example 76A]
73.0% | 1360 nM | CCN1C(=O)N[C@@H](CCC(F)(F)F)CCCCCOc2nc(cn3ccnc23)-c2nc(co2)C1C (single isomer, unassigned) [Example 105A]
101.6% | 1.6 nM | CCN1C(=O)NC(CCC(C)(C)F)CCCCCOc2nc(cn3ccnc23)-c2cc(ncc2OC)[C@H]1C (single isomer, unassigned) [Example 71B]
102.3% | 0.7 nM | CCN1C(=O)N[C@@H](CCC(F)(F)F)CCCCCOc2nc(cc3ccnn23)-c2cc(ncc2OC)C1C (single isomer, unassigned) [Example 88B]
99.48% | 2.79 nM | CCN1C(=O)NC2CN(CCCOc3nc(cn4ccnc34)-c3cc(ncc3OC)[C@H]1C)CC2C(F)(F)F (single isomer, unassigned) [Example 212]
103.1% | 0.58 nM | CCN1C(=O)NC(CCC(F)(F)F)CCCCCOc2nc(cn3ccnc23)-c2cc(ncc2Cl)[C@H]1C (stereo partly drawn) [Example 198, (3R,E)-25-chloro-4-ethyl-3-methyl-7-(3,3,3-trifluoropropyl)-13-oxa-4,6-diaza-1(6,8)-imidazo[1,2-a]pyrazina-2(4,2)-pyridinacyclotri-decaphan-5-one]
101.7% | 1.7 nM | CCN1C(=O)N[C@@H](CCC(C)(F)F)CCOCCOc2nc(cn3ncnc23)-c2cc(cnc2OC)[C@H]1C [Example 148, (3R,7S,E)-7-(3,3-difluorobutyl)-4-ethyl-22-methoxy-3-methyl-10,13-dioxa-4,6-diaza-1(6,8)-[1,2,4]triazolo[1,5-a]pyrazina-2(3,5)-pyridinacyclotridecaphan-5-one]
102.6% | 37.5 nM | CCN1C(=O)NC(c2ncnn2C)CCCCCOc2nc(cn3ccnc23)-c2cc(ncc2OC)[C@H]1C (stereo partly drawn) [Example 219, (3R,E)-4-ethyl-2^5-methoxy-3-methyl-7-(1-methyl-1H-1,2,4-triazol-5-yl)-13-oxa-4,6-diaza-1(6,8)-imidazo[1,2-a]pyrazina-2(4,2)-pyridinacyclotridecaphan-5-one]
100.1% | 5.43 nM | CCN1C(=O)N[C@@H](CCC(F)F)CCOCCOc2nc(nn3ccnc23)-c2cc(ncc2F)[C@H]1C [Example 127, (3R,7S,E)-7-(3,3-difluoropropyl)-4-ethyl-25-fluoro-3-methyl-10,13-dioxa-4,6-diaza-1(2,4)-imidazo[2,1-f][1,2,4]triazina-2(4,2)-pyridinacyclotridecaphan-5-one]
99.8% | 1.6 nM | CCC(CC)CC1CCCCCOc2nc(cn3ccnc23)-c2cc(ncc2OC)[C@@H](C)N(CC)C(=O)N1 (single isomer, unassigned) [Example 64B]
92.7% | 166 nM | CCN1C(=O)N[C@@H](CCC(F)(F)F)CCCCCOc2nc(cn3ccnc23)-c2cc(C)nc(c2)[C@@H]1C [Example 107A, (12S,16R)-13-ethyl-9,12-dimethyl-16-(3,3,3-trifluoropropyl)-12,13,16,17,18,19,20, 21-octahydro-6,23-(azeno)-11,7-(metheno)imidazo[2,1-c][1,4,10,13,15] oxatetraazacycloheni-cosin-14(15H)-one]
101% | 64 nM | CCN1C(=O)N[C@@H](CCC(F)(F)F)CCCCOc2nc(cn3cc(C)nc23)-c2cc(ncc2OC)C1C(F)(F)F (single isomer, unassigned) [Example 36A]
100.3% | 54.4 nM | CCN1C(=O)N[C@@H](CCC(F)(F)F)CCCCCOc2nc(cn3ccnc23)C2=NC=C(S2)C1C (single isomer, unassigned) [Example 94B]
103% | 2.43 nM | CCN1C(=O)N[C@@H](CCC(F)(F)F)CCOCCOc2cc(cn3ncnc23)-c2cc(ncc2OC)[C@H]1C [Example 150, (3R,7S,E)-4-ethyl-25-methoxy-3-methyl-7-(3,3,3-trifluoropropyl)-10,13-dioxa-4,6-diaza-1(6,8)-[1,2,4]triazolo[1,5-a]pyridina-2(4,2)-pyridinacyclotridecaphan-5-one]
107.8% | 2.07 nM | CCN1C(=O)NC(CC2(C)CC2)CCCCCOc2nc(nn3ccnc23)-c2cc(ncc2OC)[C@H]1C (stereo partly drawn) [Example 206, (3R,E)-4-ethyl-25-methoxy-3-methyl-7-((1-methylcyclo-propyl)methyl)-13-oxa-4,6-diaza-1(2,4)-imidazo[2,1-f] [1,2,4]triazina-2(4,2)-pyridina-cyclotridecaphan-5-one]
100.4% | 3.4 nM | CCN1C(=O)N[C@@H](CCC(F)(F)F)CCCCCOc2nc(cn3c(C)cnc23)-c2cc(nc3ccoc23)C1C (single isomer, unassigned) [Example 76B]
99.8% | 2.9 nM | CCN1C(=O)N[C@@H](CCC(F)(F)F)CCCCCOc2cc(cc3ccnn23)-c2nc(cnc2OC)C1C (single isomer, unassigned) [Example 80B]
100.2% | 1.49 nM | CCN1C(=O)N[C@@H](CCC(C)(F)F)CCOCCOc2nc(cn3ncnc23)-c2cc(ncc2C)[C@H]1C [Example 129, (3R,7S,E)-7-(3,3-difluorobutyl)-4-ethyl-25,3-dimethyl-10,13-dioxa-4,6-diaza-1(6,8)-[1,2,4]triazolo[1,5-a]pyrazina-2(4,2)-pyridinacyclotridecaphan-5-one]
101.4% | 6.09 nM | CCN1C(=O)N[C@@H](CCC(F)(F)F)CCCCOCc2nc(cn3ccnc23)-c2cc(ncc2OC)[C@H]1C [Example 144, (3R,7R,E)-4-ethyl-25-methoxy-3-methyl-7-(3,3,3-trifluoropropyl)-12-oxa-4,6-diaza-1(6,8)-imidazo[1,2-a]pyrazina-2(4,2)-pyridinacyclotridecaphan-5-one]
100.6% | 6.6 nM | CCN1C(=O)NC(CCC(F)(F)F)C(C)CCCOc2nc(cn3ccnc23)-c2cccc(c2)[C@H]1C (single isomer, unassigned) [Example 42A]
99.4% | 4.1 nM | CCN1C(=O)NC(CCC(F)(F)F)CC(C)CCOc2nc(cn3ccnc23)-c2cccc(c2)[C@H]1C (single isomer, unassigned) [Example 48A]
100.9% | 1.3 nM | CCN1C(=O)NC(CC2CCC2)CCCCCOc2nc(cn3ccnc23)-c2cc(ncc2OC)[C@H]1C (single isomer, unassigned) [Example 61B]
82.8% | 4710 nM | CCN1C(=O)NCCCCCOc2nc(cn3ncnc23)-c2cc(ncc2OC)C1C(F)(F)F (stereo not drawn) [Example 35, 13-ethyl-8-methoxy-12-(trifluoromethyl)-12,13,15,16,17,18,19,20-octahydro-14H-6,22-(azeno)-11,7-(metheno) [1,2,4]triazolo[5,1-c][1,4,10,13,15]oxatetra-azacycloicosin-14-one]
99.9% | 9.9 nM | CCN1C(=O)N[C@@H](CCC(F)(F)F)CCCCOc2nc(nn3ccnc23)-c2cc(cnc2OC)[C@H]1C [Example 46, (3R,7R,E)-4-ethyl-22-methoxy-3-methyl-7-(3,3,3-trifluoropropyl)-12-oxa-4,6-diaza-1(2,4)-imidazo[2,1-f][1,2,4]triazina-2(3,5)-pyridinacyclododecaphan-5-one]

Structure (SMILES) | hOX2R_Ipone max %act | EC50
CCN1C(=O)NCCOCCCOc2nc(cn3ccnc23)-c2cc(ncc2OC)[C@H]1C [Example 8, (12R)-13-ethyl-8-methoxy-12-methyl-12,13,16,17,20,21-hexahydro-19H-6,23-(azeno)-11,7-(metheno)imidazo[1,2-o][1,18,4,6,9,15]dioxatetra-azacyclohenicosin-14(15H)-one] | 100.2% | 13.6 nM
CCN1C(=O)NC(CCC(C)(F)F)CCCCCOc2nc(c(C)n3ncnc23)-c2cc(ncc2OC)C1C [Example 172, (3R,7R,E)-7-(3,3-difluorobutyl)-4-ethyl-25-methoxy-15,3-dimethyl-13-oxa-4,6-diaza-1(6,8)-[1,2,4]triazolo[1,5-a]pyrazina-2(4,2)-pyridinacyclotridecaphan-5-one] | 101% | 7.2 nM
